# Test results as given in patent US12582719B2, “Chimeric compounds and methods of managing neurological disorders or conditions” (Emory University, priority 2019, dated 2026).
# Entries after “also recorded” stand apart in the source; their conditions may differ.
# Legend:
# [1] = system: antidepressant-like behavioral effects; details: behaviorally inactive dose of ACY-738 co-administered with sub-effective dose of citalopram; cited from earlier work
# [2] = system: LPS-induced depressive behavior (immobility); assay: Tail suspension test (TST) with lipopolysaccharide-induced depressive behavior; type: in vivo, mice
# Method: Randomly selected NIH Swiss adult male mice (7 weeks, ˜30 g) were divided into three groups of 5 mice in per group. LPS (Lipopolysaccharide) was administered as does 850 μg/kg in saline 100 μL intraperitoneally. After 1 h, chimeric compound (HM3a-R, FIG. 2A) or belinostat (Spectrum Pharmaceutical, Irvine, CA) was injected into mice as does 75 mg/kg in vehicle 100 μL intraperitoneally. Then the compounds were dissolved in 10% dimethyl sulfoxide and 90% vehicle mixture. Vehicle formulation is 45% (2-hydroxypropyl)-β-cyclodextrin solution. After 6 h and 24 h, tail suspension test was performed. Every tail-hanged mouse was video-recorded for 6 minutes. […] The tail suspension test (TST) was performed to assess antidepressant-like activity using lipopolysaccharide (LPS) which is an endotoxin that causes depressive behavior in mice. The antidepressant activities of HM3a-R and belinostat were compared with a control.
# [3] = system: carrageenan-induced paw edema; assay: Carrageenan-induced paw edema model; details: in vivo
# Cellular toxicity = type: cell-based
# [4] = system: antidepressant-like activity in animal models; assay: In vivo screening in animal models (antidepressant-like activity); details: compared with PDX-101 (belinostat)
# xylene-induced ear edema = assay: Xylene-induced mouse ear edema test; type: in vivo, mice; details: for anti-inflammation effect compared with the control group against xylene-induced ear edema: 10 mg/kg intraperitoneally, C57BL female mice, 2 h after xylene
# Method: Randomly selected C57BL adult female mice (6 weeks, ˜20 g) were divided into three groups of five mice in per group. Chimeric compounds (HM3a-R, HM3a-S, FIG. 2A) were dissolved in 10% dimethyl sulfoxide and 90% vehicle mixture. Vehicle formulation is 45% (2-hydroxypropyl)-β-cyclodextrin solution. And then, the compounds or vehicle were injected into mice as does 10 mg/kg and injection volume 100 μL intraperitoneally. After 30 min, mice treated 30 μL of xylene on the anterior and posterior surfaces of the right ear lobe, the left ear was considered as control. Two hours later, mice were sacrificed by using CO2 gas and both ears were cut off by using a cork borer with a diameter of 7 mm and weighed and the percentage of ear edema was calculated based on the weight of another ear without xylene.
# histone H4 deacetylation = assay: In vitro HDACI activity test (western blot, acetylated histone H4); type: cell-based; details: 9 L rat glioma cell line; for histone H4 acetylation: 5 μM, western blot
# Method: The HDACI activity chimeric compounds were tested by western blot using a specific antibody against acetylated histone H4, and 9 L rat glioma cell line. the inhibitory activity of HM3a-R was analyzed at different concentrations (1 μM or 5 μM) on histone H4 deacetylation, compared with established HDACi, entinostat, (pyridin-3-yl)methyl-4-(2-aminophenylcarbamoyl)benzylcarbamate, MS-275 (1 μM or 5 μM) as positive controls.
# [5] = system: immobility in forced swim test; assay: Forced swimming test (FST); type: in vivo, mice; details: for improvement in forced-swim test (antidepressant-like activity): C57BL female mice, 6 h after injection, versus control
# Method: The FST experiment was performed twice, the first experiment comparing the control group and the HM3a-R group, and the second experiment comparing the control group and the belinostat group. In the first FST, randomly selected C57BL adult female mice (6 weeks, 20 g) were divided into two groups of eight mice per group. And the second FST, randomly selected C57BL adult female mice (6 weeks, 20 g) were divided into two groups of five mice per group. Chimeric compounds, HM3a-R (FIG. 2A) was dissolved in 10% dimethyl sulfoxide and 90% vehicle mixture. Vehicle formulation is 45% (2-hydroxypropyl)-β-cyclodextrin solution. Then, HM3a-R or belinostat as dose 75 mg/kg or vehicle (for control) was injected into mice with 100 μL volume intraperitoneally. After 6 h, two 3-liter beakers were filled approximately with 2 L water at 25+/-0.5 degrees Celsius. Camcorder was placed, directly across from two beakers. Each pair of mice (i.e., one control mouse and one treated mouse) was placed into each beaker. Every trial was video recorded in this manner for 10 minutes. While the beakers were adjacent to each other, they were enclosed by cardboard boxes. The immobile times (between 2 and 8 minutes of 10-minute trial) for each pair of mice were counted by the person who was blinded to the identities of the control and treated mice pairs.
# [6] = system: depressive symptoms among GBM patients; assay: Clinical trial of vorinostat in recurrent glioblastoma, depression assessed by IDS-SR; type: in vivo, human
# Method: A clinical trial was performed to evaluate vorinostat for the treatment of recurrent glioblastomas (GBM). Among the pleiotropic effects of HDAC inhibitors is the ability to attenuate inflammation, an action seen at concentrations lower than those required to slow cancer cell growth. GBM is frequently associated with neuroinflammation, which is thought to have pro-tumorigenic effects. […] Such changes are associated with recruitment of macrophages along a hypoxia-mediated chemotactic gradient. Macrophages recruited to hypoxic sites exert tumor-promoting effects through the expression of genes with mitogenic, angiogenic, and migration/invasion stimulating properties. Abrogating inflammatory changes associated with GBM might reduce or eliminate access to these tumor-promoting effects. Another intriguing effect of HDACis as anticancer agents might be their mood-enhancing, potentially anti-depressant, properties. In mice, decreased histone acetylation in key mood-relevant genes was found following chronic social defeat stress, a mouse model of depression. […]
# During the clinical trial, levels of depression were assessed using the Inventory of Depressive Symptomatology-Self Report (IDS-SR) to determine whether vorinostat alters the severity of depressive symptoms among GBM patients. […]
# [7] = 75 mg/kg intraperitoneally, LPS 850 μg/kg, NIH Swiss male mice
compound,measurement,setting,value
O=C(NO)c1cnc(NC2(c3ccccc3)CC2)nc1 [ACY-738],effects comparable to a higher dose of citalopram administered alone,[1],~40 fold
"COC(=O)[C@]1(c2ccc(Cl)c(Cl)c2)C[C@H]1CNCc1ccc(C(=O)NO)cc1 [HM3a-R, (1R,2R)-methyl-1-(3,4-dichlorophenyl)-2-(((4-(hydroxycarbamoyl)benzyl)amino)methyl) cyclopropane-1-carboxylate]",duration of immobility in TST at 6 h,[2]; [7],significantly reduced duration of immobility; also recorded: reduction in immobility
same,duration of immobility in TST at 24 h,"[2]; 75 mg/kg intraperitoneally, LPS 850 μg/kg, NIH Swiss male mice, 24 h",as effective as belinostat; also recorded: reduction in immobility
same,onset of antidepressant action in TST versus belinostat,"[2]; P<0.01, n=5",faster onset of antidepressant action
same,"effectiveness against carrageenan-induced paw edema, comparison of enantiomers",[3],more effective
same,cellular toxicity,Cellular toxicity,without cellular toxicity
same,antidepressant-like activity and onset time in animal models,[4],excellent antidepressant-like activity and fast onset time
same,anti-inflammation effect compared with the control group against xylene-induced ear edema,xylene-induced ear edema,48%
same,"effectiveness against ear inflammation, comparison of enantiomers",xylene-induced ear edema; FIG. 3,more effective than HM3a-S
same,histone H4 acetylation,histone H4 deacetylation,increased histone H4 acetylation
same,duration of immobility in FST,"[5]; 75 mg/kg intraperitoneally, 6 h, P<0.05",significantly less duration of immobility
same,improvement in forced-swim test (antidepressant-like activity),[5]; 75 mg/kg intraperitoneally,23%
same,antidepressant-like activity in FST relative to belinostat,[5]; 23% vs. 12%,almost two-fold
"COC(=O)[C@@]1(c2ccc(Cl)c(Cl)c2)C[C@@H]1CNCc1ccc(C(=O)NO)cc1 [HM3a-S, (1S,2S)-methyl-1-(3,4-dichlorophenyl)-2-(((4-(hydroxycarbamoyl)benzyl)amino)methyl) cyclopropane-1-carboxylate]",anti-inflammation effect compared with the control group against xylene-induced ear edema,xylene-induced ear edema,23%
"Nc1ccccc1NC(=O)c1ccc(CNC(=O)OCc2cccnc2)cc1 [MS-275, (pyridin-3-yl)methyl-4-(2-aminophenylcarbamoyl)benzylcarbamate]","inhibition of histone H4 deacetylation, comparison",histone H4 deacetylation; 1 μM and 5 μM,higher inhibitions than HM3a-R
same,histone H4 acetylation,histone H4 deacetylation,increased histone H4 acetylation
"O=C(/C=C/c1cccc(S(=O)(=O)Nc2ccccc2)c1)NO [belinostat, reference compound]",duration of immobility in TST at 6 h,[2]; [7],didn't show any effect
same,improvement in forced-swim test (antidepressant-like activity),[5]; 75 mg/kg intraperitoneally,12%
O=C(CCCCCCC(=O)Nc1ccccc1)NO [vorinostat],GBM patients with improved IDS-SR scores,[6]; 7 days of vorinostat treatment,67%
same,side effect,[6]; most patients on treatment for more than 3 weeks,fatigue
